21 compounds from patent US11453679B2, “Methyl 2-methyl-5-oxo-1,4,5,7-tetradhydrofuro[3,4-b]pyridine-3-carboxylate compounds as Cav1.2 activators” (Novartis AG, priority 2020, dated 2022) can be followed below.

Data set [1] in a line: Compound exposure in wild-type mice (cerebellum and blood, mass spectrometry). The conditions noted are these: male, C57BL/6J, mouse, brain (cerebellum) and whole blood.
Method: Compound administration and brain tissue collection. Wild-type C57BL/6J male mice were obtained from Jackson laboratories (Bar Harbor, Me.). The acute, single-dose effects of Cav1.2 activators of the present disclosure were evaluated in male eight-week old mice (n=6 mice per compound). Each compound was dissolved in 10% PEG300, 10% Solutol, 10% Cremophore EL, and 70% Phosphate Buffered Saline and administered intraperitoneal (i.p.) at a concentration of 1 mg/kg up to 30 mg/kg depending on the compound. Animals were euthanized one hour after compound administration via exsanguination under deep anesthesia. Blood was collected in EDTA tubes for downstream analysis of drug levels. Brains were rapidly removed from the skull, and the cerebral cortex and cerebellum were regionally dissected. Cerebellar samples were snap frozen in liquid nitrogen to assess compound exposure.
Quantification of compound exposure. Cerebellar tissue samples were homogenized in 4 mL of 20% acetonitrile and 80% Phosphate buffered saline for every 1 g of tissue (5× dilution). Tissue was homogenized using either of the following three methods: hand held probe system, TissueLyser system with 5 mm steel bead at a frequency of 30 s^−1 for 4 min, or OMNI Bead Ruptor Elite homogenizer for 30 seconds to 1 minute depending on tissue type. Tissue samples were added to a 96-well plate (12.5 μL sample) and processed for quantification by mass spectrometry.
Data set [2] deals with T1, human Cav1.2 (Homo sapiens, UniProt Q13936). Briefly: QPatch channel biophysics assay (current-voltage relationship, V1/2, tau of inactivation), Cav1.2-HEK293(AUX) cell line. Set-up: expressed in transfected cells; host or cells: Flp-In 293 T-Rex (HEK293), clone 2-19B, stably transfected with pCMV6-entry-CACNA1C and pcDNA5H/FRT-TO-CACNA2D2-FCS-P2A-CACNB2. Format: cell-based. The method, then:
Clonal isolation was achieved under Neomycin selection.
Each experimental run uses 1.5 mL of cells.
The protocol had eight liquid periods. […] The protocol had four liquid periods.
In general terms: In patch-clamp work, channel activity is measured electrically.

In the next data set the test system is cFos mRNA. Briefly: cFos mRNA induction in cortex of wild-type mice (quantitative PCR). In kind it is in vivo, C57BL/6J male mice. To be noted: one hour after administration. The method, then:
Compound administration and brain tissue collection.
Quantification of cFos mRNA induction. Tissue homogenization was performed using TissueLyser system for 96 well plates (Qiagen). First, frozen cortical samples were thawed, removed from RNAlater, and placed into TissueLyser tubes along with Buffer RLT containing 0.5% Reagent DX and one 5 mm TissueLyser metal bead. The TissueLyser tubes were loaded into a TissueLyser II tissue homogenizer for 3 rounds of homogenization, with each round lasting 5 minutes at 30 Hz bead-beating frequency. Total RNA was purified from the homogenate using RNeasy 96 Plus kit (Qiagen), RNA concentration and A260/A280 ratio were quantified via the Nanodrop (ThermoFisher), and all samples were normalized to 100 ng/μl concentration. RNA was reverse transcribed into cDNA using the Superscript III First-strand synthesis SuperMix Kit (ThermoFisher). For each sample, 6 μl of RNA (600 ng total) was mixed with 1 μL of Oligo dT and 1 μL of annealing buffer and heated to 65° C. for 5 minutes. Next, 10 μL of 2× First-Strand Reaction Mix and 2 μL of the Enzyme mix were added to achieve a total reaction volume of 20 μL. The samples were heated to 50° C. for 50 minutes then 85° C. for 5 minutes to complete cDNA synthesis.
Quantitative PCR was performed on the cDNA samples using Quantitect Multiplex RT-PCR kit (Qiagen) in a 384-well assay format. Each PCR well contained 2 μL of cDNA (60 ng total), 10 μL of RT-PCR mastermix, 1 μL of cFos FAM Taqman probe (Mm00487425_m1 (FAM) #4351368), 1 μL of GAPDH VIC Taqman probe (Mm99999915-g1 (VIC) #4448486), 0.2 μL of Multiplex RT mix and 5.8 μl of RNase-free water. On the ViiA7 Real-Time PCR system (ThermoFisher), the samples were heated to 95° C. for 15 minutes then cycled between 94° C. for 45 seconds and 60° C. for 45 seconds for 45 cycles. cFos Ct values were exported, normalized to GAPDH Ct values, and converted to relative fold change in expression using the delta-delta Ct relative quantification method. cFos fold changes between compound treatments and vehicle were analyzed by one-way ANOVA, followed by Tukey's post-hoc comparisons.

Data set [3] addresses T1, human Cav1.2. Briefly: Sophion QPatch whole-cell voltage clamp dose-response assay, Cav1.2-HEK293(AUX) cell line (barium currents). The conditions noted are these: for QPatch Emax: maximal fold change of peak inward current.
Method: 24 hours prior an electrophysiology experiment, doxycycline (1 μg/ml) was added to the growth medium (Table 1), and 25 μM of verapamil was co-applied to prevent calcium influx triggered cell death. Cell confluency should reach 70%-80% right before the experiment.
To harvest cells (from a T175 cm^2 flask as an example), growth media were removed completely, and the cells were rinsed with 10 mL of D-PBS. D-PBS was aspirated, and 10 mL of Detachin (Genlantis) was added and the plate was placed in a 37° C. incubator for 10 minutes. Detached cells were placed into a 15 mL conical tube and spun at 1000 rpm for 2 minutes. Supernatant was removed, and cells were re-suspended in QPatch complete media (Table 2) to desired cell density of 1.5-3 million cells per QPatch run. Each experimental run uses 1.5 mL of cells.
The cells suspension was taken to the Sophion QPatch platform that uses whole-cell voltage clamp to measure barium currents conducted through Cav1.2 on single-hole QPlates. […] A dose-response assay protocol was used to determine the maximal fold change of peak inward current (Emax) and potency (EC50) of each compound. The protocol had eight liquid periods. The first liquid period was to stabilize current amplitude, which was monitored using repetitive 200-ms voltage pulses stepping from −80 mV to 0 mV. The second liquid period was to determine baseline current amplitude in the presence of vehicle control, using a single 20-ms voltage pulse stepping from −80 mV to 0 mV. The third through eighth liquid periods were used to ascertain a 6-dose response to compound treatments, also using single 20-ms voltage pulses stepping from −80 mV to 0 mV. The EC50 was generated using the following equation Iconcentration=Ibase+(Ifull−Ibase)*c^n/(XC50^n+c^n), where c is the concentration and n is the Hill coefficient constant. Ifull is the maximal current achievable, and Ibase is 0.
[4] abbreviates: shift of half-way channel activation voltage (V1/2).
Setting [5] is: QPatch EC50, 6-point dose response, 20-ms pulses from −80 mV to 0 mV, n = 1 unless marked (* n = 2, # n = 3).
The mark [6] stands for this setting: QPatch EC50, comparative examples, known CaV1.2 activators (Table 6).

T1 sequence (Q13936 whole entry): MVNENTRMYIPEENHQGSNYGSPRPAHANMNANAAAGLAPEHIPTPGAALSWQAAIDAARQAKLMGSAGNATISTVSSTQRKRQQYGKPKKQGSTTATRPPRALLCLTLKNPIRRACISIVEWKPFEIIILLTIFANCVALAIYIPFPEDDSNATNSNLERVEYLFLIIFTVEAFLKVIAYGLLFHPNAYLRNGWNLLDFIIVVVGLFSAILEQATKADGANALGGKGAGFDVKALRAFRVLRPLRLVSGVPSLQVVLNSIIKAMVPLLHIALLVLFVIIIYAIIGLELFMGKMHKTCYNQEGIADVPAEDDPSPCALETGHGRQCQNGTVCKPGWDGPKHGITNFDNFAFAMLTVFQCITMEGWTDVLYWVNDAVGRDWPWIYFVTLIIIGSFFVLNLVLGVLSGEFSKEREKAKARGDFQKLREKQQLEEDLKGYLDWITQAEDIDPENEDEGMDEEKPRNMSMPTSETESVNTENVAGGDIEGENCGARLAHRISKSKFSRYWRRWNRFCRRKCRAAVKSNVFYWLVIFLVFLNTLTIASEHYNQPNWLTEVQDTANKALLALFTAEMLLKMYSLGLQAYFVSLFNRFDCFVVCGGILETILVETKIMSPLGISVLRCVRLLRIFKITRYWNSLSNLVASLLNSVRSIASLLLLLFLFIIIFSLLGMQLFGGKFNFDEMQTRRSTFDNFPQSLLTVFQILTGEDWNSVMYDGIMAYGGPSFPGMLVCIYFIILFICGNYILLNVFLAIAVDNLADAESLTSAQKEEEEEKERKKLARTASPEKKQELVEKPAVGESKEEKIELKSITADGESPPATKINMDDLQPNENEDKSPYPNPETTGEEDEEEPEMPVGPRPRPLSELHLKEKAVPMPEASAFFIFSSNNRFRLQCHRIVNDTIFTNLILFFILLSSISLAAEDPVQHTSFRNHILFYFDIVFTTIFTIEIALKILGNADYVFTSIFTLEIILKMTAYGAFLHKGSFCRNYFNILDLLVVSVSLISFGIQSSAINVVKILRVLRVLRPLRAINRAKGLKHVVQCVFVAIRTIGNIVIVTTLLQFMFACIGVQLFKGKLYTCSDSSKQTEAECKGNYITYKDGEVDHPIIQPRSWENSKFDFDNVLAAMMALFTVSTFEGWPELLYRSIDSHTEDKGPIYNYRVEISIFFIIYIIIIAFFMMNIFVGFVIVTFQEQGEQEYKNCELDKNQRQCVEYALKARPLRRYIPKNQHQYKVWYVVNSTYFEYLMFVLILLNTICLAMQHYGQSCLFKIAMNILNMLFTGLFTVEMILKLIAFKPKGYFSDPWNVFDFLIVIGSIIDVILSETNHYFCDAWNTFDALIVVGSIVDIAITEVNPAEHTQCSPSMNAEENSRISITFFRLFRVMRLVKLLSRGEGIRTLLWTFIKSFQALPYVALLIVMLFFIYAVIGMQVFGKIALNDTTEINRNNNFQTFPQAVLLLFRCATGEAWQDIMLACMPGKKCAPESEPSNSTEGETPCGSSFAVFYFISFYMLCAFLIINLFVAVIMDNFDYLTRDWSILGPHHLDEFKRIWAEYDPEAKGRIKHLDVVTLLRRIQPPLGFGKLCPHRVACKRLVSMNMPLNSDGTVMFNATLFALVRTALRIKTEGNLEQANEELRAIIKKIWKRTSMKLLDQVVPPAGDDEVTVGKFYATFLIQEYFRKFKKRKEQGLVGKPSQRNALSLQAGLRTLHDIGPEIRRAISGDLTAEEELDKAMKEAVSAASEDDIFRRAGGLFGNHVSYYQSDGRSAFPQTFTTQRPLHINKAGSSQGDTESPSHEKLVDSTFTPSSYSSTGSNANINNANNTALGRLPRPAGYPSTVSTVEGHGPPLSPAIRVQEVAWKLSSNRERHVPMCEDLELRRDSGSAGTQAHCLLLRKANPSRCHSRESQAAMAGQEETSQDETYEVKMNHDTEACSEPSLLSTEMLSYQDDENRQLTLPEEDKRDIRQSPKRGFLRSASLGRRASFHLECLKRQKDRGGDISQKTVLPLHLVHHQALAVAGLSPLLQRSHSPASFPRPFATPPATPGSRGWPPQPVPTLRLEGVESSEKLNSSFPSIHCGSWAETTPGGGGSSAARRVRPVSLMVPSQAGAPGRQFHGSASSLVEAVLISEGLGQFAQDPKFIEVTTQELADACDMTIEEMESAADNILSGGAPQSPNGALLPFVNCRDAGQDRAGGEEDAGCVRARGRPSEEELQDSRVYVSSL
T1 sequence (Q9NY47 19-1001 partner limits assumed): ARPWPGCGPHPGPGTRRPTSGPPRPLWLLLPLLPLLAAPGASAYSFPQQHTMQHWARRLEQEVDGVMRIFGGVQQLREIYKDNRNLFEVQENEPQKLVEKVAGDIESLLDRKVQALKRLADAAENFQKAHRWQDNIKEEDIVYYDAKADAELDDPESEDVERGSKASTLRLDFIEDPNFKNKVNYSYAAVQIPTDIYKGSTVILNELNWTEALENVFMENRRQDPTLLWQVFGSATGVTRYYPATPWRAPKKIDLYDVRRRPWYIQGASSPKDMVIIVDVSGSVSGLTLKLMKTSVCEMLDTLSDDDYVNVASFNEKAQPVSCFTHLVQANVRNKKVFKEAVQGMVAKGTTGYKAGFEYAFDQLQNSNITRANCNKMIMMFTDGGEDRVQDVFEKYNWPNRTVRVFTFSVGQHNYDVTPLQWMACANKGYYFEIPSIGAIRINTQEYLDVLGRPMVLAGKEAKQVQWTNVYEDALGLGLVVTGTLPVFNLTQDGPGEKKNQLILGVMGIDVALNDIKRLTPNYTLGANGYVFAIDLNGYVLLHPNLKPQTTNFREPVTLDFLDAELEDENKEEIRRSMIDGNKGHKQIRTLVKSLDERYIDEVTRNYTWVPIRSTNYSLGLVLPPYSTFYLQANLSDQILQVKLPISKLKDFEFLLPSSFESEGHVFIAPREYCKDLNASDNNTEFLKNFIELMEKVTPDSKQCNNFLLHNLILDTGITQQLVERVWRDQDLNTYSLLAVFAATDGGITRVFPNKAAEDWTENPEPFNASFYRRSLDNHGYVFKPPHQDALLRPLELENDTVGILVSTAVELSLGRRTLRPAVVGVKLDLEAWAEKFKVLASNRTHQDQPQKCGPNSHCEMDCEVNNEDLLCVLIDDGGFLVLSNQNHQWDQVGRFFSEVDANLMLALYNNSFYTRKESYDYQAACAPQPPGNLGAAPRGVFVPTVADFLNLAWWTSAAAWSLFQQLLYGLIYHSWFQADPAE
T1 sequence (Q9NY47 1002-1150 partner limits assumed): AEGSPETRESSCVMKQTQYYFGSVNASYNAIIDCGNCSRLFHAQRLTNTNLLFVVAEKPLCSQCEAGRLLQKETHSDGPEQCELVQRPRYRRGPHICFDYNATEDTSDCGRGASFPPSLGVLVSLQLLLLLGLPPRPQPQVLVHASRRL
T1 sequence (Q08289 whole entry partner): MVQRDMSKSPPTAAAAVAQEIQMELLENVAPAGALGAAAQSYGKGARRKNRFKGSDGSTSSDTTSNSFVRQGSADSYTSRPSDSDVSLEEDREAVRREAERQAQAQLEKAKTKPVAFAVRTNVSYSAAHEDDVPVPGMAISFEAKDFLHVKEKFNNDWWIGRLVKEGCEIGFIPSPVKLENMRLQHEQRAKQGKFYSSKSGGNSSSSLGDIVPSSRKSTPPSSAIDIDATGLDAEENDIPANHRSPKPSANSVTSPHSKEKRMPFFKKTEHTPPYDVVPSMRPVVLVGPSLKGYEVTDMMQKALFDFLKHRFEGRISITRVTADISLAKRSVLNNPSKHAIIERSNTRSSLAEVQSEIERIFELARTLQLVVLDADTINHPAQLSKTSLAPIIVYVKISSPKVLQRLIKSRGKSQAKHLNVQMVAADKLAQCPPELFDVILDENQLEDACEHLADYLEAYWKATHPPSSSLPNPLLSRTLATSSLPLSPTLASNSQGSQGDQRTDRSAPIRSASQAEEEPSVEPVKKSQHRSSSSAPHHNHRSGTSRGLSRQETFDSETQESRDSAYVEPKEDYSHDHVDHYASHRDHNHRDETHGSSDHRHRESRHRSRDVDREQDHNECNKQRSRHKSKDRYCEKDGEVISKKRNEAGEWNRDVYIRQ

As usually defined, the Kp is tissue or fluid exposure divided by exposure in the circulation. As usually defined, the EC50 is the midpoint of the concentration-response curve. On to `COC(=O)C1=C(C)NC2=C(C(=O)OC2)[C@H]1c1cccc(F)c1[C@H]1CC1(F)F` (single isomer, unassigned) [Example 1, Methyl (S)-4-(2-((R or S)-2,2-difluorocyclopropyl)-3-fluorophenyl)-2-methyl-5-oxo-1,4,5,7-tetrahydrofuro[3,4-b]pyridine-3-carboxylate], for which, in data set [1] (ip), the partition ratio (Kp) at 1 h was determined as 1.1. Also, the Biophysics voltage shift on human Cav1.2 [2] (setting [4]) is recorded as −4.5 mV. In addition, in the data set with cFos mRNA, the “% ↑cFOS mRNA cortex (3 mg/kg ip)” value was determined as 169% and the “% ↑cFOS mRNA cortex (10 mg/kg ip)” value is 350%. At human Cav1.2 [3] (setting [5]), this compound yielded an EC50 of 130 nM. Also, on human Cav1.2 [3], the “QPatch Emax” value stood at 2.0.
On to `COC(=O)C1=C(C)NC2=C(C(=O)OC2)[C@H]1c1cccc(F)c1C1CCC1` (single isomer, unassigned) [Example 3], for which the Biophysics voltage shift on human Cav1.2 [2] (setting [4]) is −6.6 mV. At human Cav1.2 [3] (setting [5]), this compound had a 50% effective concentration (EC50) of 80 nM. Besides, the “QPatch Emax” value on human Cav1.2 [3] came to 1.8.
The compound `COC(=O)C1=C(C)NC2=C(C(=O)OC2)[C@H]1c1cccc(F)c1C1CC1` (single isomer, unassigned) [Example 4] registered a Kp at 1 h in data set [1] (ip) of 1.2. Further, the Biophysics voltage shift at human Cav1.2 [2] (setting [4]) is −4.5 mV. Besides, in the data set with cFos mRNA, the “% ↑cFOS mRNA cortex (3 mg/kg ip)” value worked out at 247% and the “% ↑cFOS mRNA cortex (10 mg/kg ip)” value came out at 398%. It took 110 nM to reach a half-maximal effect on human Cav1.2 [3] (setting [5]) (EC50). In addition, the “QPatch Emax” value at human Cav1.2 [3] stood at 2.1.
`COC(=O)C1=C(C)NC2=C(C(=O)OC2)[C@H]1c1cc(F)cc(F)c1[C@H]1CC1(F)F` (single isomer, unassigned) [Example 5, Methyl (S)-4-(2-((R or S)-2,2-difluorocyclopropyl)-3,5-difluorophenyl)-2-methyl-5-oxo-1,4,5,7-tetrahydrofuro[3,4-b]pyridine-3-carboxylate]: the Biophysics voltage shift on human Cav1.2 [2] (setting [4]) is −7.2 mV. Also, on human Cav1.2 [3] (setting [5]), the midpoint of the response, the EC50, lay at 53 nM. Also, the “QPatch Emax” value on human Cav1.2 [3] came out at 2.5.
In the same order, the values of `COC(=O)C1=C(C)NC2=C(C(=O)OC2)[C@H]1c1cc(F)cc(F)c1[C@H]1CC1(F)F` (single isomer, unassigned) [Example 6, Methyl (S)-4-(2-((R or S)-2,2-difluorocyclopropyl)-3,5-difluorophenyl)-2-methyl-5-oxo-1,4,5,7-tetrahydrofuro[3,4-b]pyridine-3-carboxylate] are −4.8 mV, 81 nM and 2.6.
Regarding `COC(=O)C1=C(C)NC2=C(C(=O)OC2)[C@H]1c1cc(F)cc(F)c1[C@@H](C)F` (single isomer, unassigned) [Example 7, Methyl (S)-4-(3,5-difluoro-2-((S or R)-1-fluoroethyl)phenyl)-2-methyl-5-oxo-1,4,5,7-tetrahydrofuro[3,4-b]pyridine-3-carboxylate], the Kp at 1 h in data set [1] (ip) came out at 1.7. On human Cav1.2 [2] (setting [4]), the Biophysics voltage shift is reported as −6.6 mV. In the data set with cFos mRNA, the “% ↑cFOS mRNA cortex (3 mg/kg ip)” value is listed as 158%. Moreover, the EC50 at human Cav1.2 [3] (setting [5]) was 30 nM. Moreover, on human Cav1.2 [3], the “QPatch Emax” value is given as 1.7.
`COC(=O)C1=C(C)NC2=C(C(=O)OC2)[C@H]1c1cccc(F)c1C(C)(C)F` (single isomer, unassigned) [Example 8] came in with an EC50 at human Cav1.2 [3] (setting [5]) of 218 nM. Besides, on human Cav1.2 [3], the “QPatch Emax” value was 1.6.
In data set [1] (ip), `COC(=O)C1=C(C)NC2=C(C(=O)OC2)[C@H]1c1cccc(F)c1CC(F)(F)F` (single isomer, unassigned) [Example 9] came in with a Kp at 1 h of 2.3. Moreover, the Biophysics voltage shift at human Cav1.2 [2] (setting [4]) is on record as −6.6 mV. Further, the “% ↑cFOS mRNA cortex (3 mg/kg ip)” value in the data set with cFos mRNA worked out at 112%. This compound showed an EC50 on human Cav1.2 [3] (setting [5]) of 130 nM. Also, the “QPatch Emax” value on human Cav1.2 [3] came out at 1.5.
`COC(=O)C1=C(C)NC2=C(C(=O)OC2)[C@H]1c1cccc(F)c1[C@H](C)F` (single isomer, unassigned) [Example 10, Methyl (S)-4-(3-fluoro-2-((S or R)-1-fluoroethyl)phenyl)-2-methyl-5-oxo-1,4,5,7-tetrahydrofuro[3,4-b]pyridine-3-carboxylate] yielded a Kp at 1 h in data set [1] (ip) of 0.9. For the same compound, the “% ↑cFOS mRNA cortex (3 mg/kg ip)” value in the data set with cFos mRNA amounted to 204%. The compound also registered an EC50 on human Cav1.2 [3] (setting [5]) of 40 nM. In addition, at human Cav1.2 [3], the “QPatch Emax” value came to 2.2.
`COC(=O)C1=C(C)NC2=C(C(=O)OC2)[C@H]1c1cccc(F)c1[C@@H](F)CF` (single isomer, unassigned) [Example 11, Methyl (S)-4-(2-((R or S)-1,2-difluoroethyl)-3-fluorophenyl)-2-methyl-5-oxo-1,4,5,7-tetrahydrofuro[3,4-b]pyridine-3-carboxylate]: the Biophysics voltage shift at human Cav1.2 [2] (setting [4]) is −6.8 mV. The compound also registered an EC50 on human Cav1.2 [3] (setting [5]) of 40 nM. At human Cav1.2 [3], the “QPatch Emax” value stood at 1.4.
Turning to `CCc1c(F)cc(F)cc1[C@H]1C(C(=O)OC)=C(C)NC2=C1C(=O)OC2` (single isomer, unassigned) [Example 12], the Kp at 1 h in data set [1] (ip) came out at 0.8. Further, on human Cav1.2 [2] (setting [4]), the Biophysics voltage shift is −7.4 mV. Besides, the “% ↑cFOS mRNA cortex (3 mg/kg ip)” value in the data set with cFos mRNA is recorded as 128%. Moreover, the EC50 at human Cav1.2 [3] (setting [5]) worked out at 110 nM. Also, the “QPatch Emax” value on human Cav1.2 [3] was found to be 1.4.
On to `COC(=O)C1=C(C)NC2=C(C(=O)OC2)[C@H]1c1cc(F)cc(F)c1C(C)C` (single isomer, unassigned) [Example 18], for which, on human Cav1.2 [2] (setting [4]), the Biophysics voltage shift is listed as −6.5 mV. In addition, the EC50 on human Cav1.2 [3] (setting [5]) is 102 nM. For the same compound, the “QPatch Emax” value on human Cav1.2 [3] was 2.2.
In the same order, the values of `COC(=O)C1=C(C)NC2=C(C(=O)OC2)[C@H]1c1cccc(F)c1C1CC(F)C1` (single isomer, unassigned) [Example 20] are −6.1 mV, 86 nM and 1.6.
In the case of `COC(=O)C1=C(C)NC(C)=C([N+](=O)[O-])[C@H]1c1ccccc1C(F)(F)F` (single isomer, unassigned) [reference compound], the “QPatch Emax” value on human Cav1.2 [3] (comparative examples (Table 6)) was 3.9.
With `CCOC(=O)C1=C(C)NC2=C(C(=O)OC2)[C@H]1c1ccccc1OCc1ccccc1` (single isomer, unassigned) [reference compound], the Biophysics voltage shift at human Cav1.2 [2] (comparative examples (Table 6)) is −15.4 mV. On human Cav1.2 [3] (setting [6]), it took 450 nM to reach a half-maximal effect (EC50). At human Cav1.2 [3] (comparative examples (Table 6)), the “QPatch Emax” value was found to be 4.3.
Regarding `CCOC(=O)C1=C(C)NC2=C(C(=O)OC2)[C@H]1c1ccccc1OC(F)F` (single isomer, unassigned) [reference compound], the Kp at 1 h in data set [1] (intraperitoneal) is 0.23. The Biophysics voltage shift on human Cav1.2 [2] (comparative examples (Table 6)) is −6.7 mV. Also, the EC50 at human Cav1.2 [3] (setting [6]) came to 280 nM. Besides, the “QPatch Emax” value on human Cav1.2 [3] (comparative examples (Table 6)) amounted to 2.2.
In turn, `COC(=O)C1=C(C)NC2=C(C(=O)OC2)C1c1ccccc1C` (single isomer, unassigned) [reference compound] displayed a concentration for a half-maximal effect (EC50) on human Cav1.2 [3] (setting [6]) of 2240 nM. On human Cav1.2 [3] (comparative examples (Table 6)), the “QPatch Emax” value is 1.4.
As to `COC(=O)C1=C(C)NC2=C(C(=O)OC2)C1c1ccccc1C(F)(F)F` (single isomer, unassigned) [reference compound], the Biophysics voltage shift at human Cav1.2 [2] (comparative examples (Table 6)) is given as −4.3 mV. Besides, a half-maximal effect on human Cav1.2 [3] (setting [6]) (EC50) was put at 360 nM. For the same compound, the “QPatch Emax” value on human Cav1.2 [3] (comparative examples (Table 6)) is listed as 1.4.
The like results for `COC(=O)C1=C(C)NC2=C(C(=O)OC2)C1c1ccccc1OC(F)F` (single isomer, unassigned) [reference compound] were, in that order, −7.1 mV, 510 nM and 1.7.
`CCOC(=O)C1=C(C)NC2=C(C(=O)OC2)C1c1ccccc1C(F)(F)F` (single isomer, unassigned) [reference compound]: it took 930 nM to reach a half-maximal effect on human Cav1.2 [3] (setting [6]) (EC50). Also, the “QPatch Emax” value on human Cav1.2 [3] (comparative examples (Table 6)) is listed as 1.9.
Consider `COC(=O)C1=C(C)NC2=C(C(=O)OC2)[C@H]1c1cccc(F)c1CC(F)F` [Example 17, (S)-methyl 4-(2-(2,2-difluoroethyl)-3-fluorophenyl)-2-methyl-5-oxo-1,4,5,7-tetrahydrofuro[3,4-b]pyridine-3-carboxylate], for which the Biophysics voltage shift at human Cav1.2 [2] (setting [4]) is on record as −6.6 mV. The 50% effective concentration (EC50) on human Cav1.2 [3] (setting [5]) came out at 271 nM. Moreover, the “QPatch Emax” value on human Cav1.2 [3] is listed as 1.8.
